Reference: patent US10227331B2 (priority 2015, dated 2019)

Key:
[1] = system: P. aeruginosa expressing IMP-1, efflux− (MB9799); assay: Efflux: concentration of MBL inhibitor which restores susceptibility to imipenem; format: cell-based, Pseudomonas aeruginosa; settings: imipenem at 2 μg/mL, in the presence of a class A, C, D serine β-lactamase inhibitor closely related to relebactam
Description: (§1) The strain background is Pseudomonas aeruginosa PAO1.

VIM-1 = VIM-1 (Pseudomonas aeruginosa (strain ATCC 15692 / DSM 22644 / CIP 104116 / JCM 14847 / LMG 12228 / 1C / PRS 101 / PAO1), UniProt A0A0F7KYQ8); assay: biochemical; settings: CCF2-FA substrate, 2 hours at 25° C
Method in brief: (§2)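 Semi-log dose-response curves, fitted with a 4-parameter model, gave IC50s. The underlying signal was CCF2-FA fluorescence following 2 hours at 25° C with enzyme, substrate and inhibitor combined.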

[2] = system: P. aeruginosa expressing IMP-1, efflux+ (MB9798); format: cell-based, Pseudomonas aeruginosa; settings: for P. aeruginosa expressing IMP-1, efflux+ (MB9798) MITC95: imipenem at 2 μg/mL, in the presence of a class A, C, D serine β-lactamase inhibitor closely related to relebactam; for Efflux ratio: ratio MITC95 PA_9798/MITC95 PA_9799
Description: as §1

[3] = system: Klebsiella pneumoniae expressing VIM-1 (IHMA599644); format: cell-based; settings: VIM-1 (IHMA599644), with imipenem 1 μg/ml, 95% inhibition of bacterial growth
Method in brief: (§3)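 Restoration of imipenem susceptibility (1 μg/ml imipenem) was judged by absorbance after 22–24 h at 35° C. Test compound was added to bacteria suspended 1:100 in 1.1× CAMHB from overnight blood-agar cultures.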

[4] = system: Escherichia coli expressing NDM-1 (CLB30005, CLB30016); format: cell-based; settings: NDM-1 (CLB30016), with imipenem 1 μg/ml, 95% inhibition of bacterial growth
Method in brief: as §3

[5] = system: Serratia marcescens expressing IMP-1 (CL5741); format: cell-based; settings: IMP-1 (CL5741), with imipenem 1 μg/ml, 95% inhibition of bacterial growth
Method in brief: as §3

NDM-1 = NDM-1 (Klebsiella pneumoniae, UniProt C7C422); assay: biochemical; format: biochemical; settings: CCF2-FA substrate, 2 hours at 25° C; read-out: NDM-1 IC50
Method in brief: as §2

IMP-1 = IMP-1 (Serratia marcescens, UniProt P52699); assay: biochemical; format: biochemical; settings: CCF2-FA substrate, 2 hours at 25° C; read-out: IMP-1 IC50
Method in brief: as §2

Chain of IMP-1 (P52699 whole entry, looked up, species assumed): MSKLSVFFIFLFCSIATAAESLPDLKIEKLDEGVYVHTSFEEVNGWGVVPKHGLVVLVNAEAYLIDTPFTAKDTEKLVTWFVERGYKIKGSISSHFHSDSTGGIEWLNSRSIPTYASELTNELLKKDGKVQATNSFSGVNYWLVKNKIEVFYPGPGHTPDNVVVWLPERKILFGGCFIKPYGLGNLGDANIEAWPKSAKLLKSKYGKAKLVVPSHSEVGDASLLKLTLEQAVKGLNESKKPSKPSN
Chain of NDM-1 (C7C422 whole entry, looked up, species assumed): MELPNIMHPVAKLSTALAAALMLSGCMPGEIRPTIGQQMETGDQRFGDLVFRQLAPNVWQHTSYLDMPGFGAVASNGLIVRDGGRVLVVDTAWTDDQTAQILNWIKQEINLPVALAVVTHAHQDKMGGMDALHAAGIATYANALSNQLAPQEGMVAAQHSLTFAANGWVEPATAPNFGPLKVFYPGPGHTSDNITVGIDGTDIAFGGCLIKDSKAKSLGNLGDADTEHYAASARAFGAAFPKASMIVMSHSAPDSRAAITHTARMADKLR

Row | Structure (SMILES) | P. aeruginosa expressing IMP-1, efflux− (MB9799) MITC95 [1] | IC50 (VIM-1) | P. aeruginosa expressing IMP-1, efflux+ (MB9798) MITC95 [2] | Efflux ratio [2] | Klebsiella pneumoniae MITC95 [3] | Escherichia coli MITC95 [4] | Serratia marcescens MITC95 [5] | IC50 (NDM-1) | IC50 (IMP-1)
1 | N[C@H](CO)CS(=O)(=O)c1ccc(-c2cccc3[nH]cnc23)c(-c2nn[nH]n2)c1S(N)(=O)=O [Example 356, (R)-6-((2-amino-3-hydroxypropyl)sulfonyl)-3-(1H-benzo[d]imidazol-4-yl)-2-(2H-tetrazol-5-yl) benzenesulfonamide] | 1.563 µM | 0.344 nM | 1.563 µM | 1.00 | 3.125 µM | 1.563 µM | 1.563 µM | 0.27 nM | 0.496 nM
2 | N[C@@H](CO)CS(=O)(=O)c1ccc(-c2cccc3[nH]cnc23)c(-c2nn[nH]n2)c1S(N)(=O)=O [Example 357, (S)-6-((2-amino-3-hydroxypropyl)sulfonyl)-3-(1H-benzo[d]imidazol-4-yl)-2-(2H-tetrazol-5-yl) benzenesulfonamide] | 1.563 µM | 0.249 nM | 0.7813 µM | 0.50 | 3.125 µM | 1.563 µM | 1.563 µM | 0.163 nM | 0.294 nM
3 | NC[C@@H](CO)S(=O)(=O)c1ccc(-c2cccc3nc(N)[nH]c23)c(-c2nn[nH]n2)c1S(N)(=O)=O [Example 358, (S)-3-(2-amino-1H-benzo[d]imidazol-7-yl)-6-((1-amino-3-hydroxypropan-2-yl)sulfonyl)-2-(1H-tetrazol-5-yl) benzenesulfonamide] | 0.7813 µM | 0.789 nM | 0.7813 µM | 1.00 | 1.563 µM | 0.7813 µM | 0.7813 µM | 0.221 nM | 1.15 nM
4 | C[C@@H](N)CS(=O)(=O)c1ccc(-c2cccc3[nH]cnc23)c(-c2nn[nH]n2)c1S(N)(=O)=O [Example 359] | 0.7813 µM | 0.316 nM | 1.563 µM | 2.00 | 1.563 µM | 1.563 µM | 1.563 µM | 0.286 nM | 0.454 nM
5 | NC[C@@H](N)CS(=O)(=O)c1ccc(-c2cccc3[nH]c(N)nc23)c(-c2nn[nH]n2)c1S(N)(=O)=O [Example 360, (R)-3-(2-amino-1H-benzo[d]imidazol-4-yl)-6-((2,3-diaminopropyl)sulfonyl)-2-(2H-tetrazol-5-yl) benzenesulfonamide] | 1.281 µM | 0.287 nM | 0.8906 µM | 0.70 | 1.781 µM | 0.25 µM | 1.391 µM | 0.0654 nM | 0.544 nM
6 | NC[C@@H](O)CS(=O)(=O)c1ccc(-c2cccc3[nH]cnc23)c(-c2nn[nH]n2)c1S(N)(=O)=O [Example 361, (R)-6-((3-amino-2-hydroxypropyl)sulfonyl)-3-(1H-benzo[d]imidazol-4-yl)-2-(2H-tetrazol-5-yl) benzenesulfonamide] | 0.7813 µM | 0.253 nM | 0.7813 µM | 1.00 | 1.563 µM | 0.7813 µM | 0.7813 µM | 0.0905 nM | 0.174 nM
7 | Cn1c(N)nc2c(-c3ccc(S(=O)(=O)C[C@H](O)CN)c(S(N)(=O)=O)c3-c3nn[nH]n3)cccc21 [Example 362, (R)-3-(2-amino-1-methyl-1H-benzo[d]imidazol-4-yl)-6-((3-amino-2-hydroxypropyl)sulfonyl)-2-(2H-tetrazol-5-yl) benzenesulfonamide] | 0.7813 µM | 0.605 nM | 0.7813 µM | 1.00 | 1.563 µM | 0.3906 µM | 0.7813 µM | 0.295 nM | 0.408 nM
8 | Cn1c(N)nc2c(-c3ccc(S(=O)(=O)C[C@@H](O)CN)c(S(N)(=O)=O)c3-c3nn[nH]n3)cccc21 [Example 363, (S)-3-(2-amino-1-methyl-1H-benzo[d]imidazol-4-yl)-6-((3-amino-2-hydroxypropyl)sulfonyl)-2-(2H-tetrazol-5-yl) benzenesulfonamide] | 0.7813 µM | 0.356 nM | 0.7813 µM | 1.00 | 1.563 µM | 0.3906 µM | 0.7813 µM | 0.275 nM | 0.425 nM
9 | NC[C@@H](O)CS(=O)(=O)c1ccc(-c2ccc(N)nc2)c(-c2nn[nH]n2)c1S(N)(=O)=O [Example 364, (R)-6-((3-amino-2-hydroxypropyl)sulfonyl)-3-(6-aminopyridin-3-yl)-2-(2H-tetrazol-5-yl) benzenesulfonamide] | 0.7813 µM | 0.875 nM | 0.7813 µM | 1.00 | 1.563 µM | 0.3418 µM | 0.9766 µM | 0.795 nM | 0.486 nM
10 | NC[C@H](O)CS(=O)(=O)c1ccc(-c2ccc(N)nc2)c(-c2nn[nH]n2)c1S(N)(=O)=O [Example 365, (S)-6-((3-amino-2-hydroxypropyl)sulfonyl)-3-(6-aminopyridin-3-yl)-2-(2H-tetrazol-5-yl) benzenesulfonamide] | 0.7813 µM | 0.632 nM | 1.172 µM | 1.50 | 2.344 µM | 0.293 µM | 0.7813 µM | 1.53 nM | 1.21 nM
11 | NC[C@H](O)CS(=O)(=O)c1ccc(-c2cccc(-c3c[nH]c(N)n3)c2)c(-c2nn[nH]n2)c1S(N)(=O)=O [Example 366, (S)-3'-(2-amino-1H-imidazol-4-yl)-4-((3-amino-2-hydroxypropyl)sulfonyl)-2-(2H-tetrazol-5-yl)-[1,1'-biphenyl]-3-sulfonamide] | 1.563 µM | 1.17 nM | 3.125 µM | 2.00 | 1.563 µM | 0.7813 µM | 1.563 µM | 0.623 nM | 1.81 nM
12 | NCc1nc2c(-c3ccc(S(=O)(=O)C[C@@H](O)CN)c(S(N)(=O)=O)c3-c3nn[nH]n3)cccc2[nH]1 [Example 369, (S)-6-((3-amino-2-hydroxypropyl)sulfonyl)-3-(2-(aminomethyl)-1H-benzo[d]imidazol-4-yl)-2-(2H-tetrazol-5-yl) benzenesulfonamide] | 0.7813 µM | 0.401 nM | 0.7813 µM | 1.00 | 1.563 µM | 0.7813 µM | 0.7813 µM | 0.973 nM | 3.57 nM
13 | NCc1nc2c(-c3ccc(S(=O)(=O)C[C@H](O)CN)c(S(N)(=O)=O)c3-c3nn[nH]n3)cccc2[nH]1 [Example 370, (R)-6-((3-amino-2-hydroxypropyl)sulfonyl)-3-(2-(aminomethyl)-1H-benzo[d]imidazol-4-yl)-2-(2H-tetrazol-5-yl) benzenesulfonamide] | 0.7813 µM | 0.393 nM | 0.7813 µM | 1.00 | 1.563 µM | 0.7813 µM | 0.7813 µM | 0.361 nM | 1.25 nM
